Assay results as given in PubChem BioAssay AID248 (DTP/NCI, 2004).
Toxic doses and inconclusive results are not listed. Cut-off read from the data, not from the text of the source: active = T/C of 150% or more; inactive = T/C below 125%. Square brackets hold non-standard residues; d marks the D form. Peptide text beside a SMILES is read from it. * marks the point of attachment. ξ: configuration not given here. Cbz = O=C(OCc1ccccc1)*; ξI = CCC(C)C(N)C(=O)O; OBn = c1ccc(CO*)cc1

Tested on: L1210 leukemia ip in BDF1 mice, survival T/C
Experiment: NCI In Vivo Anticancer Drug Screen. Data for tumor model L1210 Leukemia (intraperitoneal) in B6D2F1 (BDF1) mice
Conditions: higher = longer survival
Procedure, shortened: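 In this screen, tumor-bearing mice given compound are compared to those given vehicle, and their survival values are reported as a treated-to-control quotient.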

[1] = endpoint: mean survival time, dose: 100.0 mg/kg/injection, schedule: Q04DX002 (ip), vehicle: Klucel (hydroxypropylcellulose) (HPC)
[2] = endpoint: mean survival time, dose: 200.0 mg/kg/injection, schedule: Q04DX002 (ip), vehicle: Klucel (hydroxypropylcellulose) (HPC)
[3] = endpoint: mean survival time, dose: 400.0 mg/kg/injection, schedule: Q04DX002 (ip), vehicle: Klucel (hydroxypropylcellulose) (HPC)
[4] = endpoint: mean survival time, dose: 100.0 mg/kg/injection, schedule: Q04DX003 (ip), vehicle: Klucel (hydroxypropylcellulose) (HPC)
[5] = endpoint: mean survival time, dose: 200.0 mg/kg/injection, schedule: Q04DX003 (ip), vehicle: Klucel (hydroxypropylcellulose) (HPC)
[6] = endpoint: mean survival time, dose: 400.0 mg/kg/injection, schedule: Q04DX003 (ip), vehicle: Klucel (hydroxypropylcellulose) (HPC)
[7] = endpoint: mean survival time, dose: 100.0 mg/kg/injection, schedule: Q01DX001 (ip), vehicle: saline
[8] = endpoint: mean survival time, dose: 200.0 mg/kg/injection, schedule: Q01DX001 (ip), vehicle: saline
[9] = endpoint: mean survival time, dose: 100.0 mg/kg/injection, schedule: Q01DX001 (ip), vehicle: carboxymethylcellulose (CMC)
[10] = endpoint: mean survival time, dose: 200.0 mg/kg/injection, schedule: Q01DX001 (ip), vehicle: carboxymethylcellulose (CMC)
[11] = endpoint: mean survival time, dose: 400.0 mg/kg/injection, schedule: Q01DX001 (ip), vehicle: carboxymethylcellulose (CMC)
[12] = endpoint: mean survival time, dose: 50.0 mg/kg/injection, schedule: Q01DX009 (ip), vehicle: saline

Measured: T/C

O=S(=O)([O-])Sn1c(-c2ccccc2)c[n+]2ccccc12
inactive: endpoint: mean survival time, dose: 5.0 mg/kg/injection, schedule: Q01DX009 (ip), vehicle: saline 96 % of control | endpoint: mean survival time, dose: 10.0 mg/kg/injection, schedule: Q01DX001 (ip), vehicle: saline 102 % of control | endpoint: mean survival time, dose: 10.0 mg/kg/injection, schedule: Q01DX009 (ip), vehicle: saline 101 % of control | endpoint: mean survival time, dose: 10.0 mg/kg/injection, schedule: Q04DX003 (ip), vehicle: saline 100 % of control | endpoint: mean survival time, dose: 20.0 mg/kg/injection, schedule: Q01DX001 (ip), vehicle: saline 100 % of control | endpoint: mean survival time, dose: 20.0 mg/kg/injection, schedule: Q01DX009 (ip), vehicle: saline 120 % of control | endpoint: mean survival time, dose: 20.0 mg/kg/injection, schedule: Q04DX003 (ip), vehicle: saline 97 % of control | endpoint: mean survival time, dose: 40.0 mg/kg/injection, schedule: Q01DX001 (ip), vehicle: saline 96 % of control | endpoint: mean survival time, dose: 40.0 mg/kg/injection, schedule: Q04DX003 (ip), vehicle: saline 106 % of control

CN(CC#N)/N=N/c1nc[nH]c1C(N)=O
inactive: endpoint: mean survival time, dose: 50.0 mg/kg/injection, schedule: Q01DX Z (ip), vehicle: carboxymethylcellulose (CMC) 118 % of control | endpoint: mean survival time, dose: 75.0 mg/kg/injection, schedule: Q01DX Z (ip), vehicle: carboxymethylcellulose (CMC) 107 % of control

c1cc2ccsc2cn1
inactive: endpoint: mean survival time, dose: 12.5 mg/kg/injection, schedule: Q01DX009 (ip), vehicle: saline with Tween-80 104 % of control | endpoint: mean survival time, dose: 12.5 mg/kg/injection, schedule: Q04DX003 (ip), vehicle: saline with Tween-80 110 % of control | endpoint: mean survival time, dose: 25.0 mg/kg/injection, schedule: Q01DX009 (ip), vehicle: saline with Tween-80 103 % of control | endpoint: mean survival time, dose: 25.0 mg/kg/injection, schedule: Q04DX003 (ip), vehicle: saline with Tween-80 104 % of control | endpoint: mean survival time, dose: 50.0 mg/kg/injection, schedule: Q01DX009 (ip), vehicle: saline with Tween-80 102 % of control | endpoint: mean survival time, dose: 50.0 mg/kg/injection, schedule: Q04DX003 (ip), vehicle: saline with Tween-80 103 % of control

N#Cc1nccc2ccc(OCc3ccc(Br)cc3)cc12
inactive: endpoint: mean survival time, dose: 100.0 mg/kg/injection, schedule: Q04DX003 (ip), vehicle: saline with Tween-80 88 % of control | endpoint: mean survival time, dose: 200.0 mg/kg/injection, schedule: Q04DX003 (ip), vehicle: saline with Tween-80 86 % of control | endpoint: mean survival time, dose: 400.0 mg/kg/injection, schedule: Q04DX003 (ip), vehicle: saline with Tween-80 89 % of control

CCC(C)C(NC(=O)CNC(=O)OCc1ccccc1)C(=O)OCc1ccccc1 (stereo not drawn) (Cbz-Gly-[ξI]-OBn)
inactive: endpoint: mean survival time, dose: 100.0 mg/kg/injection, schedule: Q04DX003 (ip), vehicle: other 104 % of control | endpoint: mean survival time, dose: 200.0 mg/kg/injection, schedule: Q04DX003 (ip), vehicle: other 98 % of control | endpoint: mean survival time, dose: 400.0 mg/kg/injection, schedule: Q04DX003 (ip), vehicle: other 103 % of control

COC(=O)c1[nH]nc(-c2ccccc2-c2ccccc2C(=O)O)c1C(=O)OC
inactive: [1] 97 % of control | [2] 108 % of control | [3] 105 % of control

COC(=O)c1cccc2cnccc12
inactive: [4] 107 % of control | [5] 110 % of control | [6] 96 % of control

CCCCCCCCCCCCCCCCOc1ccc(-c2cc(=O)n(C)n2C)cc1
inactive: [4] 95 % of control | [5] 101 % of control | [6] 95 % of control

Cc1ccc(NC(=O)Oc2cccc(C(F)(F)F)c2)cc1
inactive: endpoint: mean survival time, dose: 100.0 mg/kg/injection, schedule: Q01DX009 (ip), vehicle: Klucel (hydroxypropylcellulose) (HPC) 100 % of control | endpoint: mean survival time, dose: 200.0 mg/kg/injection, schedule: Q01DX009 (ip), vehicle: Klucel (hydroxypropylcellulose) (HPC) 98 % of control | endpoint: mean survival time, dose: 400.0 mg/kg/injection, schedule: Q01DX009 (ip), vehicle: Klucel (hydroxypropylcellulose) (HPC) 100 % of control

N=C(N)c1ccc(N=NNc2ccc(C(=N)N)cc2)cc1 (tested in a mixture with another compound)
inactive: [7] 93 % of control | [8] 98 % of control

CC(C)C(N)C(=O)O (stereo unspecified)
inactive: endpoint: mean survival time, dose: 50.0 mg/kg/injection, schedule: Q01DX001 (ip), vehicle: Klucel (hydroxypropylcellulose) (HPC) 97 % of control | endpoint: mean survival time, dose: 75.0 mg/kg/injection, schedule: Q01DX001 (ip), vehicle: acetone 97 % of control | endpoint: mean survival time, dose: 100.0 mg/kg/injection, schedule: Q01DX001 (ip), vehicle: Klucel (hydroxypropylcellulose) (HPC) 100 % of control | [9] 96 % of control | [7] 95 % of control | [4] 98 % of control | endpoint: mean survival time, dose: 150.0 mg/kg/injection, schedule: Q01DX001 (ip), vehicle: acetone 92 % of control | endpoint: mean survival time, dose: 200.0 mg/kg/injection, schedule: Q01DX001 (ip), vehicle: Klucel (hydroxypropylcellulose) (HPC) 99 % of control | [10] 96 % of control | [8] 100 % of control | [5] 107 % of control | endpoint: mean survival time, dose: 300.0 mg/kg/injection, schedule: Q01DX001 (ip), vehicle: acetone 94 % of control | [11] 94 % of control | endpoint: mean survival time, dose: 400.0 mg/kg/injection, schedule: Q01DX001 (ip), vehicle: saline 92 % of control | [6] 100 % of control

CNc1ccccc1C(=O)N/N=C/Cc1ccccc1
inactive: [1] 103 % of control | [2] 92 % of control | [3] 106 % of control

COc1ccc(OC)c(OC)c1CC(C)N (stereo unspecified)
inactive: endpoint: mean survival time, dose: 25.0 mg/kg/injection, schedule: Q01DX009 (ip), vehicle: saline 108 % of control | [12] 104 % of control

Cc1ccc2c(c1)P(=O)(O)c1cc(Cl)ccc1O2
inactive: [12] 98 % of control | endpoint: mean survival time, dose: 100.0 mg/kg/injection, schedule: Q01DX009 (ip), vehicle: saline 100 % of control | endpoint: mean survival time, dose: 200.0 mg/kg/injection, schedule: Q01DX009 (ip), vehicle: saline 102 % of control | endpoint: mean survival time, dose: 400.0 mg/kg/injection, schedule: Q01DX009 (ip), vehicle: saline 98 % of control | endpoint: median survival time, dose: 64.8 mg/kg/injection, schedule: Q01DX009 (ip), vehicle: water 109 % of control | endpoint: median survival time, dose: 108.0 mg/kg/injection, schedule: Q01DX009 (ip), vehicle: water 107 % of control | endpoint: median survival time, dose: 130.0 mg/kg/injection, schedule: Q04DX003 (ip), vehicle: water 103 % of control | endpoint: median survival time, dose: 180.0 mg/kg/injection, schedule: Q01DX009 (ip), vehicle: water 109 % of control | endpoint: median survival time, dose: 216.0 mg/kg/injection, schedule: Q04DX003 (ip), vehicle: water 102 % of control | endpoint: median survival time, dose: 300.0 mg/kg/injection, schedule: Q01DX009 (ip), vehicle: water 112 % of control | endpoint: median survival time, dose: 360.0 mg/kg/injection, schedule: Q04DX003 (ip), vehicle: water 103 % of control

N\C([S-])=N/N=C\C(=N/N=C(\N)[S-])C(O)C(O)C(O)CO.[Pd+2] (stereo unspecified)
inactive: endpoint: mean survival time, dose: 100.0 mg/kg/injection, schedule: Q04DX003 (ip), vehicle: saline 93 % of control | endpoint: mean survival time, dose: 200.0 mg/kg/injection, schedule: Q04DX003 (ip), vehicle: saline 91 % of control

CN(C)S(=O)(=O)c1ccccc1C(O)(c1ccccc1)c1ccccc1
inactive: [9] 95 % of control | [10] 93 % of control | [11] 98 % of control

CS(=O)(=O)Cc1ccc([N+](=O)[O-])cc1
inactive: [4] 103 % of control | [5] 109 % of control | [6] 103 % of control
